# Experiments:
# [1] = system: spindle assembly checkpoint; assay: SAC-Formation - Nocodazole-Induced Assay; assay type: cell-based; settings: Homo sapiens; HeLa cells, nocodazole 0.1 μg/ml, 24 h, phosphorylated histone H3 on serine 10
# Excerpt: The spindle assembly checkpoint assures the proper segregation of chromosomes during mitosis. Upon entry into mitosis, chromosomes begin to condensate which is accompanied by the phosphorylation of histone H3 on serine 10. Dephosphorylation of histone H3 on serine 10 begins in anaphase and ends at early telophase. Accordingly, phosphorylation of histone H3 on serine 10 can be utilized as a marker of cells in mitosis. Nocodazole is a microtubule destabilizing substance. Paclitaxel is a microtubule stabilizing compound. Thus, nocodazole as well as paclitaxel interfere with microtubule dynamics and mobilize the spindle assembly checkpoint. […] The mitotic breakthrough can be detected by the decrease of cells with phosphorylation of histone H3 on serine 10. This decline is used as a marker to determine the capability of compounds of the present invention to induce a mitotic breakthrough. The typical morphological alteration of nuclei with a prematurely completed mitosis after SAC-inhibition can be monitored via image analysis routines supporting those findings.
# The nocodazole and paclitaxel variations were used to focus on compounds that are capable of inhibiting a SAC induced by both microtubule destabilization as well as microtubule stabilization. When SAC inducing agents and compounds are given simultaneously, inhibitors that effectively block the SAC during formation or abrogation are identified. When cells are incubated with a SAC inducing agent and the SAC interfering compound is given after a defined time, inhibitors are identified that effectively block SAC abrogation.
# Cultivated cells of the human cervical tumor cell line HeLa (ATCC CCL-2) were plated at a density of 1000 cells/well in a 1536-well microtiter plate in 2 μl PAA Ham's F12 Medium supplemented with 1% (v/v) glutamine, 1% (v/v) penicillin, 1% (v/v) streptomycin and 10% (v/v) fetal calf serum. After incubation overnight at 37° C., 10 μl/well nocodazole at a final concentration of 0.1 μg/ml were added to cells. Test compounds solubilized in dimethyl sulfoxide (DMSO) were added at various concentrations (0 μM, as well as in the range of 0.005 μM-20 μM; the final concentration of the solvent DMSO was 0.5% (v/v)). Cells were incubated for 24 h at 37° C. in the presence of test compounds in combination with nocodazole. Thereafter, cells were fixed in 4% (v/v) paraformaldehyde in phosphate buffered saline (PBS) at 4° C. overnight then permeabilized in 0.1% (v/v) Triton X™ 100 in PBS at room temperature for 20 min and blocked in 0.5% (v/v) bovine serum albumin (BSA) in PBS at room temperature for 15 min. After washing with PBS, 5 μl/well antibody solution (anti-phospho-histone H3 clone 3H10, FITC; Millipore, Cat #16-222; 1:1000 dilution) was added to cells, which were incubated for 2 h at room temperature. Afterwards, cells were washed with PBS and 5 μl/well solution of HOECHST 33342 dye (5 μg/ml) was added to cells and cells were incubated 15 min at room temperature in the dark. Cells were washed twice with PBS then covered with PBS and stored at 4° C. until analysis. Images were acquired with a PERKIN ELMER OPERA™ High-Content Analysis reader. Images were analyzed with image analysis software MetaXpress™ from Molecular devices utilizing the Mitotic Index application module. In this assay both labels HOECHST 33342 and phosphorylated Histone H3 on serine 10 were measured. HOECHST 33342 labels the DNA and is used to count the cell number. The staining of phosphorylated Histone H3 on serine 10 determines the number of mitotic cells. […] Otherwise cells were arrested at G2/M phase of the cell cycle progression. The raw assay data were further analyzed by four-parametric hill equation using Genedata's Assay Analyzer and Condoseo software.
# human kinase Mps-1 = human kinase Mps-1 (Homo sapiens (Human), UniProt P33981); assay: Mps-1 kinase assay (TR-FRET); assay type: biochemical; settings: 10 μM ATP; read-out: Mps1 avg (IC50 [mol/l])
# Sequence of human kinase Mps-1 (P33981 whole entry): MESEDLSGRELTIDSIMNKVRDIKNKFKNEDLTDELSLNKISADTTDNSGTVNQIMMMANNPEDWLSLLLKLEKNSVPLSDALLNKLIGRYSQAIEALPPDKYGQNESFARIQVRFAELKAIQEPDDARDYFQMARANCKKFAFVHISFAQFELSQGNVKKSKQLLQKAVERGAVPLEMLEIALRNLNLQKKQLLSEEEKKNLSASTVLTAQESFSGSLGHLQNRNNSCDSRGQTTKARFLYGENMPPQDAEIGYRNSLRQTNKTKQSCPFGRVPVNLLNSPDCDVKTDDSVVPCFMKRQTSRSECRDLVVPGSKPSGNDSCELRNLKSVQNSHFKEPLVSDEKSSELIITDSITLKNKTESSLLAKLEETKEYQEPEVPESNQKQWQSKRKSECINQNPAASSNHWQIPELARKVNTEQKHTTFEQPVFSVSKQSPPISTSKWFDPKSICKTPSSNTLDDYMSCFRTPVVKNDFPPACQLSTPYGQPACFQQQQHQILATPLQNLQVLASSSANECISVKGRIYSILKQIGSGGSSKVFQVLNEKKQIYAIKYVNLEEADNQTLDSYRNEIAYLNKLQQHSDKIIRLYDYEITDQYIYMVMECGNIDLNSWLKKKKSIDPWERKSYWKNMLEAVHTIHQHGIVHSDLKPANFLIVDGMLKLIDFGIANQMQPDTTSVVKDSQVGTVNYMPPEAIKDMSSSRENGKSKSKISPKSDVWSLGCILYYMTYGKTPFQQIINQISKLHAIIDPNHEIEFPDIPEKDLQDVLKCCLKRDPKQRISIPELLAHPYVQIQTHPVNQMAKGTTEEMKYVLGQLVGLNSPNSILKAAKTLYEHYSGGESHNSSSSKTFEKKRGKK
# Experimental: The human kinase Mps-1 phosphorylates a biotinylated substrate peptide. Detection of the phosphorylated product is achieved by time-resolved fluorescence resonance energy transfer (TR-FRET) from Europium-labelled anti-phospho-Serine/Threonine antibody as donor to streptavidin labelled with cross-linked allophycocyanin (SA-XLent) as acceptor. Compounds are tested for their inhibition of the kinase activity.
# N-terminally GST-tagged human full length recombinant Mps-1 kinase (purchased from Invitrogen, Karslruhe, Germany, cat. no PV4071) was used. As substrate for the kinase reaction a biotinylated peptide of the amino-acid sequence biotin-Ahx-PWDPDDADITEILG (C-terminus in amide form, purchased from Biosyntan GmbH, Berlin) was used.
# For the assay 50 nl of a 100-fold concentrated solution of the test compound in DMSO was pipetted into a black low volume 384 well microtiter plate (Greiner Bio-One, Frickenhausen, Germany), 2 μl of a solution of Mps-1 in assay buffer [0.1 mM sodium-ortho-vanadate, 10 mM MgCl2, 2 mM DTT, 25 mM Hepes pH 7.7, 0.05% BSA (w/v), 0.001% Pluronic F-127] were added and the mixture was incubated for 15 min at 22° C. to allow pre-binding of the test compounds to Mps-1 before the start of the kinase reaction. Then the kinase reaction was started by the addition of 3 μl of a solution of 16.7 μM adenosine-tri-phosphate (ATP, 16.7 μM=>final conc. in the 5 μl assay volume is 10 μM) and peptide substrate (1.67 μM=>final conc. in the 5 μl assay volume is 1 μM) in assay buffer and the resulting mixture was incubated for a reaction time of 60 min at 22° C. The concentration of Mps-1 in the assay was adjusted to the activity of the enzyme lot and was chosen appropriate to have the assay in the linear range, typical enzyme concentrations were in the range of about 0.5 nM (final conc. in the 5 μl assay volume). The reaction was stopped by the addition of 5 μl of a solution of TR-FRET detection reagents (100 mM Hepes pH 7.4, 0.1% BSA, 40 mM EDTA, 140 nM Streptavidin-XLent [#61GSTXLB, Fa. Cis Biointernational, Marcoule, France], 1.5 nM anti-phospho(Ser/Thr)-Europium-antibody [#AD0180, PerkinElmer LAS, Rodgau-Jugesheim, Germany]. Instead of the 1.5 nM anti-phospho(Ser/Thr)-Europium-antibody a mixture of 2 nM unlabeled anti-phospho ser/thr-pro antibody MPM-2 [Millipore cat. #05-368] and 1 nM LANCE EU-W1024 labeled anti-mouse IgG antibody [Perkin-Elmer, product no. AD0077] can be used).
# The resulting mixture was incubated 1 h at 22° C. to allow the binding of the phosphorylated peptide to the anti-phospho(Ser/Thr)-Europium-antibody. Subsequently the amount of phosphorylated substrate was evaluated by measurement of the resonance energy transfer from the Europium-labelled anti-phospho(Ser/Thr) antibody to the Streptavidin-XLent. Therefore, the fluorescence emissions at 620 nm and 665 nm after excitation at 350 nm was measured in a Viewlux TR-FRET reader (PerkinElmer LAS, Rodgau-Jugesheim, Germany). The “blank-corrected normalized ratio” (a Viewlux specific readout, similar to the traditional ratio of the emissions at 665 nm and at 622 nm, in which blank and Eu-donor crosstalk are subtracted from the 665 nm signal before the ratio is calculated) was taken as the measure for the amount of phosphorylated substrate. The data were normalised (enzyme reaction without inhibitor=0% inhibition, all other assay components but no enzyme=100% inhibition).
Structure (SMILES),IC50 [1],IC50 (human kinase Mps-1)
"CCc1ccccc1NC(=O)c1c(C)nsc1Nc1ncnc2ccccc12 [Example 10, N-(2-Ethylphenyl)-3-methyl-5-(quinazolin-4-ylamino)-1,2-thiazole-4-carboxamide]",6500 nM,> 20000 nM
"COc1ccc(NC(=O)c2c(C)nsc2Nc2nccnc2C#N)cn1 [Example 24, 5-[(3-Cyanopyrazin-2-yl)amino]-N-(6-methoxypyridin-3-yl)-3-methyl-1,2-thiazole-4-carboxamide]",3800 nM,> 20000 nM
"Cc1nsc(Nc2cnc3ccccc3n2)c1C(=O)Nc1ccc(Oc2ccccc2)nc1 [Example 112, 3-Methyl-N-(6-phenoxypyridin-3-yl)-5-(quinoxalin-2-ylamino)-1,2-thiazole-4-carboxamide]",18 nM,> 20000 nM
"Cc1nsc(Nc2cnc3ccccc3n2)c1C(=O)Nc1ccc(Oc2ccc(F)cc2F)nc1 [Example 113, N-[6-(2,4-Difluorophenoxy)pyridin-3-yl]-3-methyl-5-(quinoxalin-2-ylamino)-1,2-thiazole-4-carboxamide]",470 nM,> 20000 nM
"Cc1nsc(Nc2cncc(C(=O)N3CCCC3)n2)c1C(=O)Nc1ccc(F)c(F)c1 [Example 106, N-(3,4-Difluorophenyl)-3-methyl-5-{[6-(pyrrolidin-1-ylcarbonyl)pyrazin-2-yl]amino}-1,2-thiazole-4-carboxamide]",260 nM,> 20000 nM
"Cc1nsc(Nc2ccc(C#N)cn2)c1C(=O)Nc1ccc(OC(C)C)nc1 [Example 110, 5-[(5-Cyanopyridin-2-yl)amino]-N-(6-isopropoxyridin-3-yl)-3-methyl-1,2-thiazole-4-carboxamide]",650 nM,> 20000 nM
"Cc1nsc(Nc2cnc3ccccc3n2)c1C(=O)Nc1ccc(Cl)c(F)c1 [Example 40, N-(4-Chloro-3-fluorophenyl)-3-methyl-5-(quinoxalin-2-ylamino)-1,2-thiazole-4-carboxamide]",45 nM,> 20000 nM
"CCc1ccccc1NC(=O)c1c(C)nsc1Nc1nc(C)nc2ccccc12 [Example 35, N-(2-Ethylphenyl)-3-methyl-5-[(2-methylquinazolin-4-yl)amino]-1,2-thiazole-4-carboxamide]",260 nM,> 20000 nM
"CCOC(=O)c1coc(Nc2snc(C)c2C(=O)Nc2ccc(F)c(F)c2)n1 [Example 98, Ethyl 2-({4-[(3,4-difluoro-phenyl)carbamoyl]-3-methyl-1,2-thiazol-5-yl}amino)-1,3-oxazole-4-carboxylate]",3000 nM,18000 nM
"COc1ccc(NC(=O)c2c(C)nsc2Nc2ccc(C#N)cn2)cn1 [Example 39, 5-[(5-Cyanopyridin-2-yl)amino]-N-(6-methoxypyridin-3-yl)-3-methyl-1,2-thiazole-4-carboxamide]",1300 nM,> 20000 nM
"CCOC(=O)c1cnc(Nc2snc(C)c2C(=O)Nc2ccc(OC)nc2)s1 [Example 29, Ethyl 2-({4-[(6-methoxypyridin-3-yl)carbamoyl]-3-methyl-1,2-thiazol-5-yl}amino)-1,3-thiazole-5-carboxylate]",310 nM,> 20000 nM
"CCc1ccccc1NC(=O)c1c(C)nsc1Nc1nc2ccccc2s1 [Example 14, 5-(1,3-Benzothiazol-2-ylamino)-N-(2-ethylphenyl)-3-methyl-1,2-thiazole-4-carboxamide]",350 nM,> 20000 nM
"COC(=O)c1cnc(Nc2snc(C)c2C(=O)Nc2ccc(F)c(F)c2)o1 [Example 97, Methyl 2-({4-[(3,4-difluoro-phenyl)carbamoyl]-3-methyl-1,2-thiazol-5-yl}amino)-1,3-oxazole-5-carboxylate]",5900 nM,> 20000 nM
"CCc1ccccc1NC(=O)c1c(C)nsc1Nc1cnc2cc(F)ccc2n1 [Example 20, N-(2-Ethylphenyl)-5-[(6-fluoroquinoxalin-2-yl)amino]-3-methyl-1,2-thiazole-4-carboxamide]",340 nM,> 20000 nM
"Cc1nsc(Nc2ccc(C#N)cn2)c1C(=O)Nc1ccc(F)c(F)c1 [Example 28, 5-[(5-Cyanopyridin-2-yl)amino]-N-(3,4-difluorophenyl)-3-methyl-1,2-thiazole-4-carboxamide]",41 nM,> 20000 nM
"COc1ccc(Oc2ccc(NC(=O)c3c(C)nsc3Nc3cnc4ccccc4n3)cn2)cc1 [Example 116, N-[6-(4-Methoxyphenoxy)pyridin-3-yl]-3-methyl-5-(quinoxaline-2-ylamino)-1,2-thiazole-4-carboxamide]",1600 nM,3600 nM
"CCOC(=O)c1cnc(Nc2snc(C)c2C(=O)Nc2ccc(F)c(F)c2)o1 [Example 96, Ethyl 2-({4-[(3,4-difluorophenyl)carbamoyl]-3-methyl-1,2-thiazol-5-yl}amino)-1,3-oxazole-5-carboxylate]",1200 nM,> 20000 nM
"Cc1nsc(Nc2cncc(C(=O)N3CCOCC3)n2)c1C(=O)Nc1ccc(F)c(F)c1 [Example 107, N-(3,4-Difluorophenyl)-3-methyl-5-{[6-(morpholin-4-ylcarbonyl)pyrazin-2-yl]amino}-1,2-thiazole-4-carboxamide]",340 nM,> 20000 nM

# — patent publication US9682995B2, “Amino-substituted isothiazoles” (BAYER PHARMA AKTIENGESELLSCHAFT, priority 2013, dated 2017)
